Where two headings read alike, the source gives them in different places.
Columns and labels:
[1] = tobacco use disorder, cited from earlier work
[2] = Mouse liver microsomes stability with NADPH
Description: (§1) The objective of this study was to estimate in vitro metabolic stability of exemplary compounds in pooled human, male rat and male mouse liver microsomes. The concentrations of exemplary compounds in reaction systems were evaluated by LC-MS/MS for estimating the stability in pooled human, male rat and male mouse liver microsomes. The in vitro intrinsic clearances of test compounds were determined as well.
(§2) A master solution in the “Incubation Plate” containing phosphate buffer, ultra-pure H2O, MgCl2 solution and liver microsomes was made according to Table 3. The mixture was pre-warmed at 37° C. water bath for 5 minutes.
(§3) 40 μL of 10 mM NADPH solution was added to each well. The final concentration of NADPH was 1 mM. The negative control samples were prepared by replacing NADPH with 40 μL of ultra-pure H2O. Samples were prepared in duplicate. Negative controls were prepared in singlet.
(§4) The reaction was started with the addition of 4 μL of 200 μM exemplary test compounds or control compounds to each master solution to get the final concentration of 2 μM. This study was performed in duplicate.
(§5) Aliquots of 50 μL were taken from the reaction solution at 0, 15, 30, 45 and 60 minutes. The reaction solutions were stopped by the addition of 4 volumes of cold methanol with IS (100 nM alprazolam, 200 nM imipramine, 200 nM labetalol and 2 μM ketoprofen). Samples were centrifuged at 3,220 g for 40 minutes. Aliquot of 90 μL of the supernatant was mixed with 90 μL of ultra-pure H2O and then was used for LC-MS/MS analysis.
(§6) LC/MS analysis was performed for all samples from this study using a Shimadzu liquid chromatograph separation system equipped with degasser DGU-20A5R; solvent delivery unit LC-30AD; system controller SIL-30AC; column oven CTO-30A; CTC Analytics HTC PAL System. Mass spectrometric analysis was performed using an Triple Quad™ 5500 instrument.
(§7) All calculations were carried out using Microsoft Excel. Peak areas were determined from extracted ion chromatograms. The slope value, k, was determined by linear regression of the natural logarithm of the remaining percentage of the parent drug vs. incubation time curve.
(§8) Conversion of the in vitro t1/2 (min) into the in vitro intrinsic clearance (in vitro CLint, in μL/min/mg proteins) was done using the following equation (mean of duplicate determinations): […]

[3] = target: human 5-HT2A (h5-HT2A) receptor (Homo sapiens (Human), UniProt P28223); assay: FLIPR calcium assay, human 5-HT2A receptor, agonist mode; type: cell-based; settings: FLIPR, agonist mode; read-out: h5-HT2A EC50
Description: I. Assessment of the Activated Effect of Exemplary Compounds of Formula I Targeting on Human 5-HT2A (h5-HT2A) Receptor Under Agonist Mode:
1. Culture the cells in cell culture medium (DMEM containing 10% FBS, 1× penicillin-streptomycin 300 μg/ml G418 and 100 μg/ml hygromycin B) at 37° C., 5% (v/v) CO2.
2. One day before the assays, detach the cell using TrypLE™ Express and count cells using cell counter.
3. Seed 20000 cells/well in 30 μl/well culture medium to a 384-well cell plate and incubate the cells overnight at 37° C., 5% (v/v) CO2.
4. On the assay day, prepare 2×dye solution following the manual of the FLIPR® Calcium 6 Assay Kit: i. Dilute the dye with assay buffer(20 mM HEPES in 1× HBSS, PH7.4); ii. Add probenecid to the final concentration of 5 mM; iii. Vortex vigorously for 1-2 minutes.
5. Medium from cell plate by flicking the cell plate on towel papers.
6. Add 10 μl of assay buffer and 10 μl of 2×dye solution to each well of the cell plate.
7. Put the cell plate on plate shaker, agitate the plate at 600 rpm for 2 minutes. Incubate the plate at 37° C. for 2 hours followed by additional 15-minute incubation at 25° C.
8. Prepare 3×compound in assay buffer: a. Dilute reference compounds to required concentration with DMSO. Add the compounds to a 384-well compound plate; b. Perform serial dilutions; c. Add 10 mM test compounds to the compound plate, perform 3-fold serial dilutions. d. […] Add 20 μl/well assay buffer to the compound plate; f. Mix the plate on plate shaker for 2 mins;
i. The normalized fluorescence reading (RFU) is calculated as shown follow, while Fmax and Fmin stand for maximum and minimum of calcium signal during defined time window: RFU=Fmax−Fmin
ii. Calculate the percentage activation by using following equation: […]
iii. Calculate EC50 by fitting % activation against log of compound concentrations with Hill equation using XLfit.

[4] = target: human 5-HT2A receptor (Homo sapiens (Human), UniProt P28223); assay: Radioligand ([3H]-ketanserin) binding assay on human 5-HT2A receptor; settings: [3H]-ketanserin competition binding; read-out: h5-HT2A IC50
Description: i. Prepare the assay buffer following the table below;
ii. Preparation of 8 doses of reference and exemplary test compounds starting from 10 mM stock solution as requested by 5-fold serial dilutions with 100%;
iii. […] a. Add 50 μl/well of 0.5% (v/v) PEI to UniFilter-96 GF/B plates. Seal the plates and incubate at 4° C. for 3 hrs; b. After incubation, wash the plates 3 times with ice-cold wash buffer (50 mM Tris, pH7.4);
iv. Preparation of assay plates: a. Dilute cell membrane with assay buffer and add 330 μl/well to 96 round deep well plates to reach a concentration of 20 μg/well; b. Prepare 8 concentrations of reference or exemplary test compounds and add 110 μl/well to 96 round deep well plates; c. Dilute [3H]-ketanserin with assay buffer to 5 nM (5× final concentration) and add 110 μl/well to 96 round deep well plates.
v. Centrifuge the plate at 1000 rpm for 30 secs and then agitate at 600 rpm, R.T. for 5 min.
vi. Seal the plates and incubate the plate at 27° C. for 90 min.
vii. Stop the incubation by vacuum filtration onto GF/B filter plates followed by 4 times washing with ice-cold wash buffer (50 mM Tris, pH7.4).
ix. Seal the filter plates and add 40 μl/well of scintillation cocktail.
x. Read the plate by using a Microbeta2 microplate counter.
For reference and exemplary test compounds, the results are expressed as % Inhibition, using the normalization equation: N=100−100×(U−C2)/(C1−C2), where U is the unknown value, C1 is the average of high controls, and C2 is the average of low controls. The IC50 is determined by fitting percentage of inhibition as a function of compound concentrations with Hill equation using XLfit.

[5] = Human liver microsomes stability with NADPH
Description: as §1, §2, §3, §4, §5, §6, §7, §8

[6] = Rat liver microsomes stability with NADPH
Description: as §1, §2, §3, §4, §5, §6, §7, §8

[7] = system: head-twitch response (HTR) in male C57BL6 mice; assay: Mouse head-twitch response (HTR); type: in vivo; settings: M100907 0.5 mg/kg IP before I-2 10 mg/kg SC
Description: Male, C57BL/6J mice (body weight range 20-30 g) were dosed with the appropriate dose of test article, and following a 1-minute pre-treatment time, placed in individual observation chambers. Animals were visually assessed for the incidence head twitches continuously over a 1 hr period. Head twitches were defined as a rapid jerk of the head which was not elicited by an external tactile stimulus (Come and Pickering, Psychopharmacologia, 1967, 11(1): 65-78). Each head twitch was individually counted by a trained observer, and the data expressed as the mean±SEM of 6-10 mice per group. Mice were used in a single experiment only.
The effect of various doses of exemplary compound of Formula I, I-2, on head-twitch response (HTR) in male C57BL6 mice were measured. The mice were treated with compound I-2 (0.03-10 mg/kg, SC) by SC route (N=6 mice/dose), and the total number of head twitches were recorded over a 1h period. Data is expressed as mean±SEM. The induction of head twitches elicited by 5-HT2A receptor agonists is believed to represent a behavioural proxy of their psychedelic effects.
To evaluate the involvement of 5-HT2A receptor on the HTR induced by exemplary compounds of Formula I, mice were pretreated with the selective 5-HT2AR antagonist M100907 (also known as volinanserin) prior to the administration of exemplary compounds of Formula I, for example, 1-2 (10 mg/kg SC).

Structure (SMILES): CN(C)CCc1c[nH]c2cccc(OP(=O)(O)O)c12 [psilocybin, 4-phosphoryloxy-N,N-dimethyltrypatmine]
- abstinence rate ([1]; 12 months follow-up): 67%
- abstinence rate ([1]; six months follow-up): 80%

Structure (SMILES): [2H]C([2H])(c1c[nH]c2cccc(OC(=O)CCCCCCC/C=C\C/C=C\CCCCC)c12)[C@H]1CCCN1C([2H])([2H])[2H] [Compound I-49, 3-(((R)-1-(methyl-d3)pyrrolidin-2-yl)methyl-d2)-1H-indol-4-yl (9Z,12Z)-octadeca-9,12-dienoate]
- half-life at 2 μM ([2]; male, mouse, microsomes): 20.8 min
- microsomal CLint at 2 μM ([2]; male, mouse, microsomes): 66.5 µL/min/mg
- Remaining Percentage (%) after 60 min, Mouse ([2]; mouse liver microsomes, with NADPH, 2 μM): 13.60%
- EC50 [3]: 1000 to 10000 nM
- IC50 [4]: < 500 nM
- Remaining Percentage (%) after 60 min, Human ([5]; human liver microsomes, with NADPH, 2 μM): 86.81%
- half-life at 2 μM ([5]; human, microsomes): 294 min
- microsomal CLint at 2 μM ([5]; human, microsomes): 4.72 µL/min/mg
- half-life at 2 μM ([6]; male, rat, microsomes): 48.4 min
- microsomal CLint at 2 μM ([6]; male, rat, microsomes): 28.6 µL/min/mg
- Remaining Percentage (%) after 60 min, Rat ([6]; rat liver microsomes, with NADPH, 2 μM): 42.38%

Structure (SMILES): COc1cccc([C@H](O)C2CCN(CCc3ccc(F)cc3)CC2)c1OC [Compound M100907, reference compound]
- effect of I-2 on HTR after pretreatment with 5-HT2A antagonist M100907 [7]: completely blocked
